# Measurements published in patent US20210268017A1, “MOLECULAR HYDROGEN-CONTAINING COMPOSITION FOR PREVENTION AND/OR IMPROVEMENT OF PNEUMONIA” (MiZ Company Limited, priority 2020, published 2021).
# Columns and labels:
# [1] = test system: chronic bronchitis and obstructive lung bronchitis; conditions: mice; earlier study; cited from earlier work
# [2] = room temperature, normal pressure; also printed as 1.6 mg/L; cited from earlier work
# interstitial pneumonia = conditions: patient; drip infusion 1 ppm hydrogen 250 ml plus hydrogen gas inhalation (6 to 7%, 120 ml/min) 30 to 60 minutes once weekly for 8 weeks
# Protocol: A patient who was diagnosed as having interstitial pneumonia received a drip infusion of hydrogen (1 ppm hydrogen, 250 ml) and inhalation of hydrogen gas over 30 minutes to 60 minutes once weekly for 8 weeks. MHG-2000α manufactured by MiZ Company Limited (hydrogen gas concentration 6 to 7%, 120 ml/min) was used for inhalation of a hydrogen gas.
smiles,measurement,setting,value
"[HH] [hydrogen, molecular hydrogen]",effect on chronic bronchitis and obstructive lung bronchitis,[1],improved chronic bronchitis and obstructive lung bronchitis
same,concentration of hydrogen dissolved in water,[2],approximately 1.6 ppm
same,"improvement of interstitial pneumonia, confirmed by disappearance of ground-glass opacity in the CT finding",interstitial pneumonia,Significant improvement
